{"source": "paper PMC12439480", "about": "“Dimeric CCK2R radiotheranostic tracers synergize with mTOR inhibition for enhanced tumor therapy” (Theranostics, 2025)", "key": {"AR42J tumor-bearing mice [1]": {"system": "AR42J tumor-bearing mice", "test": "Toxicity studies (blood count, blood biochemistry, histopathology)", "procedure": "On day 12 post-treatment, the tumor tissues were processed and subjected to scRNA-seq and immunohistochemical (IHC) analysis (see Supplementary Methods, Section S4). […] Toxicity studies were conducted when the mice reached one of the predefined endpoints (Supplementary Methods, Section S6). […]\nSection S6: Toxicity Studies\nBlood samples were collected retro-orbitally using a glass capillary tube when mice reached one of the predefined endpoints. The samples were then centrifuged at 6,000 rpm for 10 minutes (Centrifuge 5417R, Eppendorf SE, Enfield, CT, USA), and the supernatant was transferred into a preventive care profile plus rotor for analysis of RBC, WBC, PLT, ALT, AST, ALP, BUN, and CREA. Sample analysis was performed"}, "[2]": {"set-up": "species or system mice", "settings": "mouse, in vivo, 24 h", "procedure": "In vitro stability was evaluated by incubating ~37 kBq of each radiotracer in PBS or human serum at 37 °C (n = 3). […] To further assess the in vivo stability of [^177Lu]Lu-DOTA-CCK2R-dimer, mice (n = 3) were intravenously injected with 3.7 MBq of the radiotracer in 200 μL of saline. […] The radioactivity of the blood samples was measured using a γ-counter, and the percent of injected dose per gram of tissue (%ID/g) was calculated. Additionally, we assessed the in vivo stability of [^177Lu]Lu-DOTA-CCK2R-dimer. Mice were intravenously injected with 7.4 MBq (≈ 240 pmol) of [^177Lu]Lu-DOTA-CCK2R-dimer (dissolved in 200 μL of saline; n = 3/group)."}, "AR42J tumor-bearing mice [3]": {"system": "AR42J tumor-bearing mice", "test": "Ex vivo biodistribution of 177Lu-labeled compound", "set-up": "species or system BALB/c nude mice", "settings": "mouse, in vivo", "procedure": "To evaluate the biodistribution of [^177Lu]Lu-DOTA-CCK2R-dimer, AR42J tumor-bearing mice received intravenous (i.v.) injections of 3.7 MBq (≈ 120 pmol) of [^177Lu]Lu-DOTA-CCK2R-dimer (dissolved in 200 μL of saline; n = 3/group), and Mice were sacrificed at 1, 4, 24, 48, 72, and 96 h post-injection. The tissues of interest were excised, weighed, and analyzed for radioactivity using a γ-counter.\nAll animal studies were approved by the Ethics Committee of Fudan University Shanghai Cancer Center (No. FUSCC-IACUC- S2023- 0003). Five-week-old female BALB/c nude mice were purchased from Shanghai SLAC Laboratory Animal\nCompany. To establish cell-derived xenograft (CDX) models, 1 × 10⁶ AR42J cells (100 μL) were subcutaneously inoculated into the right shoulder of each mouse. […]\nRadioactivity levels were measured using a gamma counter, with decay correction applied based on the injection time. The percentage of injected dose per gram of tissue (%ID/g) was calculated for each time point. […]"}}, "note": "Numbered stars: 1 amine (or outer) side, 2 acyl side, 3 side chain; on linkers, the order of the positions; unused ones are H or OH. Square brackets hold non-standard residues; d marks the D form. Side chains are listed from the residue outwards. Peptide text beside a SMILES is read from it. * marks the point of attachment. DOTA = O=C(O)CN1CCN(CC(=O)O)CCN(CC(=O)*)CCN(CC(=O)O)CC1; d(γGlu) = O=C(O)[C@@H](CCC(=O)[*:2])N[*:1]; 1Nal = N[C@@H](Cc1cccc2ccccc12)C(=O)O; NMeNle = CCCC[C@H](NC)C(=O)O; PEG4 = NCCOCCOCCOCCOCCC(=O)O"}
{"smiles": "CCCC[C@@H](C(=O)N[C@@H](CC(=O)O)C(=O)N[C@@H](Cc1cccc2ccccc12)C(N)=O)N(C)C(=O)[C@H](Cc1c[nH]c2ccccc12)NC(=O)CCOCCOCCOCCOCCNC(=O)CC[C@@H](NC(=O)CC[C@H](NC(=O)CN1CCN(CC(=O)O)CCN(CC(=O)O)CCN(CC(=O)O)CC1)C(=O)N[C@H](CCC(=O)NCCOCCOCCOCCOCCC(=O)N[C@@H](Cc1c[nH]c2ccccc12)C(=O)N(C)[C@@H](CCCC)C(=O)N[C@@H](CC(=O)O)C(=O)N[C@@H](Cc1cccc2ccccc12)C(N)=O)C(=O)O)C(=O)O", "note": "[[177Lu]Lu-DOTA-CCK2R-dimer] [metal not drawn] ({DOTA}-E([d(γGlu)-PEG4-Trp-NMeNle-Asp-1Nal-NH2])[d(γGlu)][PEG4]W[NMeNle]D[1Nal]-NH2)", "values": [{"measurement": "ALP", "setting": "AR42J tumor-bearing mice [1]; mouse, in vivo", "value": "135.99 ± 24.61", "unit": "U/L"}, {"measurement": "ALT", "setting": "AR42J tumor-bearing mice [1]; mouse, in vivo", "value": "44.93 ± 6.41", "unit": "U/L"}, {"measurement": "AST", "setting": "AR42J tumor-bearing mice [1]; mouse, in vivo", "value": "87.94 ± 5.64", "unit": "U/L"}, {"measurement": "GRA", "setting": "AR42J tumor-bearing mice [1]; mouse, in vivo", "value": "28.7 ± 8.16", "unit": "%"}, {"measurement": "GRA#", "setting": "AR42J tumor-bearing mice [1]; mouse, in vivo", "value": "0.20 ± 0.07 109/L"}, {"measurement": "HCT", "setting": "AR42J tumor-bearing mice [1]; mouse, in vivo", "value": "19.2 ± 5.20", "unit": "%"}, {"measurement": "HGB", "setting": "AR42J tumor-bearing mice [1]; mouse, in vivo", "value": "151.67 ± 19.64", "unit": "g/L"}, {"measurement": "LYM", "setting": "AR42J tumor-bearing mice [1]; mouse, in vivo", "value": "52.27 ± 2.74", "unit": "%"}, {"measurement": "LYM#", "setting": "AR42J tumor-bearing mice [1]; mouse, in vivo", "value": "0.38 ± 0.14 109/L"}, {"measurement": "MCH", "setting": "AR42J tumor-bearing mice [1]; mouse, in vivo", "value": "41.83 ± 6.37", "unit": "pg"}, {"measurement": "MCHC", "setting": "AR42J tumor-bearing mice [1]; mouse, in vivo", "value": "714 ± 42.04", "unit": "g/L"}, {"measurement": "MCV", "setting": "AR42J tumor-bearing mice [1]; mouse, in vivo", "value": "51.63 ± 0.81", "unit": "fL"}, {"measurement": "MON", "setting": "AR42J tumor-bearing mice [1]; mouse, in vivo", "value": "19.03 ± 9.18", "unit": "%"}, {"measurement": "MON#", "setting": "AR42J tumor-bearing mice [1]; mouse, in vivo", "value": "0.15 ± 0.13 109/L"}, {"measurement": "P-LCR", "setting": "AR42J tumor-bearing mice [1]; mouse, in vivo", "value": "35.87 ± 5.49", "unit": "%"}, {"measurement": "PCT", "setting": "AR42J tumor-bearing mice [1]; mouse, in vivo", "value": "0.16 ± 0.04", "unit": "%"}, {"measurement": "PDW", "setting": "AR42J tumor-bearing mice [1]; mouse, in vivo", "value": "28.67 ± 2.04", "unit": "fL"}, {"measurement": "PLT", "setting": "AR42J tumor-bearing mice [1]; mouse, in vivo", "value": "116 ± 13.08 109/L"}, {"measurement": "RBC", "setting": "AR42J tumor-bearing mice [1]; mouse, in vivo", "value": "4.72 ± 0.81 1012/L"}, {"measurement": "RDWCV", "setting": "AR42J tumor-bearing mice [1]; mouse, in vivo", "value": "10.77 ± 0.40", "unit": "%"}, {"measurement": "RDWSD", "setting": "AR42J tumor-bearing mice [1]; mouse, in vivo", "value": "22.33 ± 1.15", "unit": "fL"}, {"measurement": "UA", "setting": "AR42J tumor-bearing mice [1]; mouse, in vivo", "value": "126.33 ± 13.85", "unit": "µmol/L"}, {"measurement": "UREA", "setting": "AR42J tumor-bearing mice [1]; mouse, in vivo", "value": "3.25 ± 0.56", "unit": "mmol/L"}, {"measurement": "WBC", "setting": "AR42J tumor-bearing mice [1]; mouse, in vivo", "value": "7.0 ± 2.65 109/L"}, {"measurement": "MPV", "setting": "AR42J tumor-bearing mice [1]; post-treatment CBC", "value": "12.2 ± 0.61", "unit": "fL"}, {"measurement": "compound remaining intact in urine (radiochemical purity)", "setting": "[2]", "value": "more than 96%"}, {"measurement": "Tumor-to-Muscle ratio (T/M)", "setting": "AR42J tumor-bearing mice [3]", "value": 90.85}]}
